Experimental data: the Kinase Knowledgebase extract (Sharma et al. 2016)

What was measured:
MAPK14 (human) [1] = target: MAPK14 (human) (UniProt Q16539); settings: pbmc
MAPK14 (human) [2] = target: MAPK14 (human) (UniProt Q16539); settings: pbmc; remark: listed apart in the source
[3] = target: MAPK14, Q16539 [p38 beta Inhibition]
MAPK14 = MAPK14 (UniProt Q16539)
MAPK14 (human) [4] = target: MAPK14 (human) (UniProt Q16539); settings: pbmc; remark: listed apart in the source
MAPK14 (rat) = settings: pbmc
MAPK14 (dog) = settings: pbmc
MAPK14 (human) [5] = target: MAPK14 (human) (UniProt Q16539); settings: pbmc; remark: listed apart in the source

Chain of MAPK14 (human) (Q16539 whole entry, looked up): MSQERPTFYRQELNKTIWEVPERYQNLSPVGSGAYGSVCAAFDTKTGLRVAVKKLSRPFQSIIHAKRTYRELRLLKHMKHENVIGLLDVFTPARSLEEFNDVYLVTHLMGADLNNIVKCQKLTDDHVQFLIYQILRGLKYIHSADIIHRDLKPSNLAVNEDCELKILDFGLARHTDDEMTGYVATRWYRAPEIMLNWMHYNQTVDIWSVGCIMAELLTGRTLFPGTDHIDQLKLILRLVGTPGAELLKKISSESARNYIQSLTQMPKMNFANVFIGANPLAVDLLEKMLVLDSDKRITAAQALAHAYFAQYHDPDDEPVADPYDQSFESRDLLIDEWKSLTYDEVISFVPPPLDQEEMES
Chain of MAPK14, Q16539 [p38 beta Inhibition] (Q16539 whole entry, looked up, change not shown): as the sequence (Q16539 whole entry, looked up) above
Chain of MAPK14 (Q16539 whole entry, looked up): as above

## OCCC#Cc1nc(-c2ccc(F)cc2)c(-c2ccncc2)n1CCCc1ccccc1
MAPK14 (human) [1]
  IC50: 6 nM
MAPK14 (human) [2]
  IC50: 11 nM
[3]
  IC50: 11000 nM
MAPK14
  IC50: 1000 nM
MAPK14 (human) [4]
  IC50: 13 nM
MAPK14 (rat)
  IC50: 580 nM
MAPK14 (dog)
  IC50: 15 nM
MAPK14 (human) [5]
  IC50: 3 nM
